Measured values: US12708655B2, “Botanicals as WNT/beta-catenin activators, molecular pathway regulators, tissue regenerators and health biomarker regulators” (Arbor Life Holdings, Ltd., priority 2020, dated 2026)

Tests used:
[1] = tested on: human dermal papilla cells; conditions: in vitro; cited from earlier work
androgen receptor = target: T1, androgen receptor (Homo sapiens, UniProt P10275); conditions: human dermal papilla cells; cited from earlier work
T1 construct: nuclear translocation of the androgen receptor stimulated by DHT in human dermal papilla cells; host or cells: human dermal papilla cells
T1 sequence (P10275 1-920): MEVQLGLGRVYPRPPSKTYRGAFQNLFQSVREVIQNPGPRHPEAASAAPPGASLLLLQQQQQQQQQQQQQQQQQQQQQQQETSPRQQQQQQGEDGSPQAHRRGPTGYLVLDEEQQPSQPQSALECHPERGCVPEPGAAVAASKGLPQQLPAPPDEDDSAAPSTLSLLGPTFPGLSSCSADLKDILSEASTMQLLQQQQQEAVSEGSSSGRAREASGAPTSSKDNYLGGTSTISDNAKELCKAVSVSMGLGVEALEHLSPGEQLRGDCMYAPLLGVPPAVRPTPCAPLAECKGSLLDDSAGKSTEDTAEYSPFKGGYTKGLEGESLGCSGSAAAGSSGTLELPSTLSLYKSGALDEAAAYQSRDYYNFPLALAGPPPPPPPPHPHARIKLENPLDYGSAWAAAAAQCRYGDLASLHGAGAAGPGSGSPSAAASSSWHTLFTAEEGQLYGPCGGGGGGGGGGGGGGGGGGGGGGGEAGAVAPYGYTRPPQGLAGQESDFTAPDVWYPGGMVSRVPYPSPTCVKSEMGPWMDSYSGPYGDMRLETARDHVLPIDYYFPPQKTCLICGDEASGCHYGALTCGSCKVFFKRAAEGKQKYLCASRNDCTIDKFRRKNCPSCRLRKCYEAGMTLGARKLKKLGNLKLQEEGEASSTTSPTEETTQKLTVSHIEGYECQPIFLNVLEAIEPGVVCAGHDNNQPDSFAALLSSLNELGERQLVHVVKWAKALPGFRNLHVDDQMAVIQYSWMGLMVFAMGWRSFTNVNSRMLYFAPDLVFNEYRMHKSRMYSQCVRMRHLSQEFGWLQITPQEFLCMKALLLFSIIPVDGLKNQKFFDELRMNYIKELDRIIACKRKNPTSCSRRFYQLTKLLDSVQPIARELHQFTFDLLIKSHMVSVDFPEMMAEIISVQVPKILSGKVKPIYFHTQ

[2] = tested on: LNCaP prostate cancer cells; conditions: cells stimulated by DHT; cited from earlier work
[3] = tested on: androgentic alopecia and telogen effluvium in Women; experiment: Comparative analysis of clinical trial results in women versus standard of care, adjusted to 24 weeks; assay type: in vivo, human
[4] = tested on: androgenetic alopecia and telogen effluvium in Men; experiment: Comparative analysis of clinical trial results in men versus standard of care, adjusted to 24 weeks; assay type: in vivo, human
[5] = tested on: androgenetic alopecia and telogen effluvium in Men; conditions: adjusted to 24 weeks, cited from earlier work
[6] = tested on: androgentic alopecia and telogen effluvium in Women; conditions: adjusted to 24 weeks, from clinical trial or systematic review; cited from earlier work

SMILES | proliferation of human dermal papilla cells [1] | nuclear translocation of the androgen receptor stimulated by DHT (androgen receptor) | overgrowth of LNCaP prostate cancer cells [2] | Efficacy Factor Multiple vs 2% Minoxidil [3] | Efficacy Factor Multiple vs 2% Minoxidil [4] | Changes in Terminal Hairs per sq.cm vs placebo ([5]; from clinical trial or systematic review) [per sq.cm] | Changes in Terminal hair count per sq·cm versus placebo, comparators ([5]; systematic reviews of randomized controlled trials) [per sq·cm] | Changes in Terminal Hairs per sq.cm, difference between active and placebo groups [6] [per sq.cm]
O=C(O)[C@H]1O[C@@H](Oc2cc3oc(-c4ccccc4)cc(=O)c3c(O)c2O)[C@H](O)[C@@H](O)[C@@H]1O [baicalin] | enhanced proliferation | inhibited | dose-dependently inhibited | – | – | – | – | –
CC(C)(C)NC(=O)[C@H]1CC[C@H]2[C@@H]3CC[C@H]4NC(=O)C=C[C@]4(C)[C@H]3CC[C@]12C [finasteride 1 mg, finasteride] | – | – | – | −0.1 | 1.0 | 6.4 | 6.4 | −1.0
